Data from patent publication US10633419B2, “Immunomodulators” (BRISTOL-MYERS SQUIBB COMPANY, priority 2014, dated 2020).
Starred links: 1 amine or outer side, 2 acyl side, 3 side chain; linkers in the order of their positions; H or OH if unused. Positions of bridges follow the written chain, without caps; N, C: chain ends. Non-standard residues stand in square brackets, D forms with d. Residues, ends and D or L forms follow the SMILES beside them. Groups on a side chain read outwards from the residue. *: point of attachment. X22 = CCCCCCCCCCCCCC(=O)N[C@H](CCC(=O)NCCCC[C@H](NC(=O)CCC(=O)NCCCOCCOCCOCCCN*)C(N)=O)C(=O)O; X7 = CCCCCCCCCCCCCCCCNC(=O)[C@H](CC(=O)O)NC(=O)CCC(=O)NCCCOCCOCCOCCCN*; X27 = CCCCCCCCCCCCCCCCNC(=O)CCC(=O)NCCCOCCOCCOCCCN*; C16 diacid = O=C(O)CCCCCCCCCCCCCCC(=O)*; γGlu = O=C(O)[C@H](CCC(=O)[*:2])N[*:1]; Hyp = O=C(O)[C@@H]1C[C@@H](O)CN1; Myristoyl = CCCCCCCCCCCCCC(=O)*; NMeNle = CCCC[C@H](NC)C(=O)O; NMeA = CN[C@@H](C)C(=O)O

Each compound was assayed against T1, PD-L1 (Homo sapiens, UniProt Q9NZQ7) (assay: PD-1/PD-L1 Homogenous Time-Resolved Fluorescence (HTRF) binding assay (PD-1-Ig/PD-L1-His)). Conditions: inhibition of PD-1-Ig binding to PD-L1-TVMV-His; value given as range class; read-out: HTRF IC50.
T1 construct: hPDL1(19-239)-TVMV-His; made in house; host or cells: HEK293T
How it was run: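 HTRF competition in dPBS with 0.1% BSA and 0.05% Tween-20: 20 nM PD-1-Ig added after 15 min compound pre-incubation with 10 nM PD-L1-His, then another 15 min. Signal (665/620 nm) after 30 min with APC anti-His (20 nM) and Eu anti-Ig (1 nM).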

T1 sequence (Q9NZQ7 with tags, fused parts or gaps): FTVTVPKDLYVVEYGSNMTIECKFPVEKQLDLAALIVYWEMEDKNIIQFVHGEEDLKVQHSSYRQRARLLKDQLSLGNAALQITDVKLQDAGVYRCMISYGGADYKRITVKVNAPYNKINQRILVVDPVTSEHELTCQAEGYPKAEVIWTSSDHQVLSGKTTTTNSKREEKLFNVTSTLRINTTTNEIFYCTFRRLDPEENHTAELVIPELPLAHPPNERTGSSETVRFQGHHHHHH

| Compound | IC50 [µM] |
| --- | --- |
| CCCCCCCCCCCCCCCCNC(=O)CCC(=O)NCCCOCCOCCOCCCNC(=O)CNC(=O)[C@@H]1CSCC(=O)N[C@@H](Cc2ccc(O)cc2)C(=O)N(C)[C@@H](C)C(=O)N[C@@H](CC(=O)O)C(=O)N2CCC[C@H]2C(=O)N[C@@H](Cc2cnc[nH]2)C(=O)N[C@@H](CC(C)C)C(=O)N2C[C@H](O)C[C@H]2C(=O)N[C@@H](Cc2c[nH]c3ccccc23)C(=O)N[C@@H](CO)C(=O)N[C@@H](Cc2c[nH]c3ccccc23)C(=O)N(C)[C@@H](CCCC)C(=O)N(C)[C@@H](CCCC)C(=O)N[C@@H](CCCNC(=N)N)C(=O)N1 [Example 11124] ({CH2CO}-Y[NMeA]DPHL[Hyp]WSW[NMeNle][NMeNle]RCG-X27; thioether N-14) | 0.1 to 1.6 |
| CCCCCCCCCCCCCC(=O)N[C@H](CCC(=O)NCCCC[C@H](NC(=O)CCC(=O)NCCCOCCOCCOCCCNC(=O)CNC(=O)[C@@H]1CSCC(=O)N[C@@H](Cc2ccc(O)cc2)C(=O)N(C)[C@@H](C)C(=O)N[C@@H](CC(=O)O)C(=O)N2CCC[C@H]2C(=O)N[C@@H](Cc2cnc[nH]2)C(=O)N[C@@H](CC(C)C)C(=O)N2C[C@H](O)C[C@H]2C(=O)N[C@@H](Cc2c[nH]c3ccccc23)C(=O)N[C@@H](CO)C(=O)N[C@@H](Cc2c[nH]c3ccccc23)C(=O)N(C)[C@@H](CCCC)C(=O)N(C)[C@@H](CCCC)C(=O)N[C@@H](CCCNC(=N)N)C(=O)N1)C(N)=O)C(=O)O [Example 11125] ({CH2CO}-Y[NMeA]DPHL[Hyp]WSW[NMeNle][NMeNle]RCG-X22; thioether N-14) | 0.01 to 0.099 |
| CCCCCCCCCCCCCCCCNC(=O)[C@H](CC(=O)O)NC(=O)CCC(=O)NCCCOCCOCCOCCCNC(=O)CNC(=O)[C@@H]1CSCC(=O)N[C@@H](Cc2ccc(O)cc2)C(=O)N(C)[C@@H](C)C(=O)N[C@@H](CC(=O)O)C(=O)N2CCC[C@H]2C(=O)N[C@@H](Cc2cnc[nH]2)C(=O)N[C@@H](CC(C)C)C(=O)N2C[C@H](O)C[C@H]2C(=O)N[C@@H](Cc2c[nH]c3ccccc23)C(=O)N[C@@H](CO)C(=O)N[C@@H](Cc2c[nH]c3ccccc23)C(=O)N(C)[C@@H](CCCC)C(=O)N(C)[C@@H](CCCC)C(=O)N[C@@H](CCCNC(=N)N)C(=O)N1 [Example 11128] ({CH2CO}-Y[NMeA]DPHL[Hyp]WSW[NMeNle][NMeNle]RCG-X7; thioether N-14) | 0.01 to 0.099 |

Now from value to compound:

| IC50 [µM] | Compound |
| --- | --- |
| 0.01 to 0.099 | CCCCCCCCCCCCCC(=O)N[C@@H](CCC(=O)NCCCC[C@H](NC(=O)[C@H](CC(=O)O)NC(=O)CNC(=O)CNC(=O)[C@@H]1CSCC(=O)N[C@@H](Cc2ccc(O)cc2)C(=O)N(C)[C@@H](C)C(=O)N[C@@H](CC(=O)O)C(=O)N2CCC[C@H]2C(=O)N[C@@H](Cc2cnc[nH]2)C(=O)N[C@@H](CC(C)C)C(=O)N2C[C@H](O)C[C@H]2C(=O)N[C@@H](Cc2c[nH]c3ccccc23)C(=O)N[C@@H](CO)C(=O)N[C@@H](Cc2c[nH]c3ccccc23)C(=O)N(C)[C@@H](CCCC)C(=O)N(C)[C@@H](CCCC)C(=O)N[C@@H](CCCNC(=N)N)C(=O)N1)C(N)=O)C(=O)O [Example 11123] ({CH2CO}-Y[NMeA]DPHL[Hyp]WSW[NMeNle][NMeNle]RCGGDK([γGlu-Myristoyl])-NH2; thioether N-14) |
| 0.01 to 0.099 | CCCC[C@H]1C(=O)N(C)[C@@H](CCCC)C(=O)N[C@@H](CCCNC(=N)N)C(=O)N[C@H](C(=O)NCC(=O)NCC(=O)N[C@@H](CC(=O)O)C(=O)N[C@@H](CCCCNC(=O)CCCCCCCCCCCCCCC(=O)O)C(N)=O)CSCC(=O)N[C@@H](Cc2ccc(O)cc2)C(=O)N(C)[C@@H](C)C(=O)N[C@@H](CC(=O)O)C(=O)N2CCC[C@H]2C(=O)N[C@@H](Cc2cnc[nH]2)C(=O)N[C@@H](CC(C)C)C(=O)N2C[C@H](O)C[C@H]2C(=O)N[C@@H](Cc2c[nH]c3ccccc23)C(=O)N[C@@H](CO)C(=O)N[C@@H](Cc2c[nH]c3ccccc23)C(=O)N1C [Example 11126] ({CH2CO}-Y[NMeA]DPHL[Hyp]WSW[NMeNle][NMeNle]RCGGDK(C16 diacid)-NH2; thioether N-14) |
